Experimental data from patent US6607723B1, “Methods and compositions for attenuating antibody-mediated xenograft rejection in human recipients” (priority 1991, dated 2003).

What was measured:
[1] = test system: Human Anti-Pig Kidney antibodies; assay: ELISA: human antibodies eluted from pig kidney binding to carbohydrate-BSA antigens; details: BSA well O.D. subtracted
Protocol: (§1) Organs from two populations of pigs were used to purify human anti-pig antibodies. The pig strains were Poland China and Yorkshire. Antibody preparations were obtained by perfusing 100-200 ml of human plasma (O or AB) through pig hearts, pig kidneys or through a column containing solid support coated with pig red cell stroma. After washing the tissues thoroughly with 0.15 M NaCl, the retained antibodies were eluted from the tissue or column using 200 ml of 3M NaSCN. The antibodies were concentrated, and then the protein content determined. Carbohydrate antigens were made by covalent binding of the synthetic oligosaccharides with an aliphatic linking arm (CH2)8COOCH3 to BSA as described by Pinto and Bundle (1983)^19 and/or Lemieux, Bundle, Baker (U.S. Pat. No. 4,137,401)^13 (ten to twenty haptens per molecule of BSA). Example 5, infra, describes this procedure as applied to carbohydrate 2 of FIG. 1A. Structures and trivial names of some of the monosaccharides and oligosaccharides used are included in FIGS. 1A to 1H. The use of synthetic carbohydrate structures to detect antibody binding has been previously described in U.S. Pat. No. 4,137,401^13. The technology used for the ELISA assay for detecting anti-carbohydrate antibodies is a combination of the work from numerous groups. Wells in 96 microtitration plates (Flow Laboratories, Inc., McLean Va., U.S.A.) were coated by incubation at room temperature for 16 hours with 2 μg of BSA-glycoconjugates or BSA per well (20 μg BSA-conjugate/ml diluted in PBS). The coating solutions were removed and 200 μl/well of PBS containing 5% BSA was added. After a 4 hours incubation (22° C.), the wells were washed twice with PBS, then once with H2O. The plates were inverted, allowed to dry, and stored at room temperature. Immediately before testing, 200 μl of PBS containing 1% BSA (1% BSA/PBS) was added to each of the wells and left to stand for 10 to 20 minutes at ambient temperature. The human anti-pig preparations were diluted to between 15 to 70 μg of eluted protein per ml of 1% BSA/PBS. The BSA/PBS was removed and 100 μl of diluted anti-pig preparation was added to the appropriate wells, then incubated at 4° C. for 16 hours. The antibody preparations were removed and the wells were washed 4 times with PBS (200 μl/wash). Alkaline phosphatase-conjugated reagents (anti-human polyvalent (α, γ and μ chain specific), anti-human IgG (γ chain specific) and anti-human IgM (μ chain specific)) from Sigma Chemical Company (St. Louis, Mo., U.S.A.) were each diluted 1/500 in 1% BSA/PBS. One hundred μl of this mixture was added to each well. After 2 hours, wells were washed four times with PBS, then 100 μl/well of 1.0 mg of p-nitrophenyl phosphate/ml of 1 M diethanolamine-HCl (pH 9.8) containing 19% BSA and 500 μM MgCl2 was added. After 1 hour, optical densities at 405 nm (O.D.) were measured using a Microplate Autoreader (Model EL 309, BIO-TEK Instruments, Winooski, Vt., U.S.A.). The O.D. results for BSA-coated wells were subtracted from the results for the glycoconjugate-BSA-coated wells for each preparation. The assays were performed in duplicate.

[2] = test system: Human Anti-Pig Heart antibodies; assay: ELISA: human antibodies eluted from pig heart binding to carbohydrate-BSA antigens; details: for Optical Density (405 nm): BSA well O.D. subtracted; for O.D. readings: most of the human anti-pig heart preparations
Protocol: as §1

[3] = test system: pig kidney cell line (LLC-PK1); assay: Chromium release assay, plasma incubated with soluble carbohydrate haptens; assay type: cell-based; details: heat inactivated human plasma (O and A), 1 ml incubated overnight at 4° C. with 0.215 g hapten; FIGS. 8A and 8B
Protocol: Undiluted heat-inactivated plasma (100 μl) was incubated with 100 μl of chromium-labelled target cells (2×10^4 cells) in 96 well V bottom microtiter plates (Dynatech Lab., Chantilly, Va., U.S.A.: Cat.# 1-220-25X) at 37° C. for 1 hour with shaking (20 rpm). A 1/15 dilution of rabbit complement (LOWTOX-M from Cedarlane Laboratories Ltd., Hornby, Ontario, Canada: Cat.# CL3051) was added to each well. The plate was again incubated for 1 hour at 37° C. with shaking. Plates were then spun at 1000 rpm and supernatants were counted for chromium content in the Beckman gamma 4000 counter (Beckman Instruments, Inc., Fullerton, Calif., U.S.A.). Spontaneous and total release controls were also run. Spontaneous counts were always less than 5% of the total counts, and typical total counts of cells ranged from 10,000 to 20,000 cpm.
This procedure was done to investigate the potential for inhibiting human preformed cytotoxic antibodies with carbohydrate(s) haptens. […] The chromium release assay was then performed with treated and untreated plasma; the pig kidney cell line (LLC-PK1) was used as the target cell.

[4] = test system: human antibodies eluted from pig heart, pig kidney and/or pig red cell stroma; assay: ELISA: human anti-pig antibody preparations overall binding to carbohydrate antigens
Protocol: Organs from two populations of pigs were used to purify human anti-pig antibodies. The pig strains were Poland China and Yorkshire. Antibody preparations were obtained by perfusing 100-200 ml of human plasma (O or AB) through pig hearts, pig kidneys or through a column containing solid support coated with pig red cell stroma. After washing the tissues thoroughly with 0.15 M NaCl, the retained antibodies were eluted from the tissue or column using 200 ml of 3M NaSCN. The antibodies were concentrated, and then the protein content determined. Carbohydrate antigens were made by covalent binding of the synthetic oligosaccharides with an aliphatic linking arm (CH2)8COOCH3 to BSA as described by Pinto and Bundle (1983)^19 and/or Lemieux, Bundle, Baker (U.S. Pat. No. 4,137,401)^13 (ten to twenty haptens per molecule of BSA). Example 5, infra, describes this procedure as applied to carbohydrate 2 of FIG. 1A. Structures and trivial names of some of the monosaccharides and oligosaccharides used are included in FIGS. 1A to 1H. The use of synthetic carbohydrate structures to detect antibody binding has been previously described in U.S. Pat. No. 4,137,401^13. […] After 1 hour, optical densities at 405 nm (O.D.) were measured using a Microplate Autoreader (Model EL 309, BIO-TEK Instruments, Winooski, Vt., U.S.A.). […]

[5] = Human Anti-Pig Kidney preparation 5 A°, human O plasma adsorbed onto tissue
[6] = Human Anti-Pig Kidney preparation 5 B^AB, human AB plasma adsorbed onto tissue
[7] = Human Anti-Pig Kidney preparation 6 A°, human O plasma
[8] = Human Anti-Pig Kidney preparation 6 B^AB, human AB plasma
[9] = Human Anti-Pig Kidney preparation 7 A^AB, human AB plasma
[10] = Human Anti-Pig Kidney preparation 7 B°, human O plasma
[11] = Human Anti-Pig Kidney preparation 8 A°, human O plasma, pig of A-phenotype
[12] = Human Anti-Pig Kidney preparation 9 B^AB, human AB plasma
[13] = Human Anti-Pig Heart preparation 5^AB, human AB plasma
[14] = Human Anti-Pig Heart preparation 6°, human O plasma
[15] = Human Anti-Pig Heart preparation 7^AB, human AB plasma
[16] = Human Anti-Pig Heart preparation 9°, human O plasma

Row | Compound | Optical Density (405 nm) [1, 5] | Optical Density (405 nm) [1, 6] | Optical Density (405 nm) [1, 7] | Optical Density (405 nm) [1, 8] | Optical Density (405 nm) [1, 9] | Optical Density (405 nm) [1, 10] | Optical Density (405 nm) [1, 11] | Optical Density (405 nm) [1, 12] | Optical Density (405 nm) [2, 13] | Optical Density (405 nm) [2, 14] | Optical Density (405 nm) [2, 15] | Optical Density (405 nm) [2, 16] | O.D. readings [2] | cytotoxic effect of antibodies to the pig cell line [3] | antibodies to the carbohydrate present in eluted antibody preparations ([4]; every preparation of antibodies tested (Table 1)) | reactivity in ELISA ([4]; majority of samples tested, including anti-pig heart and anti-pig kidney)
1 | C[C@@H]1O[C@@H](O)[C@H](O)[C@H](O)[C@H]1O [formula 31, α-L-Rhamnose] | 0.2 | 0.0 | 0.3 | 0.5 | 1.7 | 0.1 | 0.0 | 0.1 | 0.7 | 0.4 | >2.0 | 0.6 | some of the highest readings |  |  | 
2 | C[C@@H]1O[C@@H](O[C@H]2C(O)O[C@H](CO)[C@H](O)[C@@H]2O[C@H]2O[C@H](CO)[C@H](O)[C@H](O)[C@H]2O)[C@@H](O)[C@H](O)[C@@H]1O (stereo partly shown) [B trisaccharide] |  |  |  |  |  |  |  |  |  |  |  |  |  | partially inhibited |  | 
3 | (αGal(1-3)βGal(1-4)βGlc-O—(CH2)8CONH)17-BSA [formula 2] | 1.9 | 1.3 | >2.0 | >2.0 | 0.8 | 1.8 | 1.2 | >2.0 | 1.0 | 0.3 | 1.2 | 0.8 |  |  | present in every preparation | most reactivity

The next lines start with results.

Row | Optical Density (405 nm) [1, 5] | Optical Density (405 nm) [1, 6] | Optical Density (405 nm) [1, 7] | Optical Density (405 nm) [1, 8] | Optical Density (405 nm) [1, 9] | Optical Density (405 nm) [1, 10] | Optical Density (405 nm) [1, 11] | Optical Density (405 nm) [1, 12] | Optical Density (405 nm) [2, 13] | Optical Density (405 nm) [2, 14] | Optical Density (405 nm) [2, 15] | Optical Density (405 nm) [2, 16] | O.D. readings [2] | Compound | cytotoxic effect of antibodies to the pig cell line [3] | antibodies to the carbohydrate present in eluted antibody preparations ([4]; every preparation of antibodies tested (Table 1)) | reactivity in ELISA ([4]; majority of samples tested, including anti-pig heart and anti-pig kidney)
4 | 0.5 | 0.7 | 0.4 | 1.0 | 1.1 | 0.5 | 0.1 | 0.1 | 2.0 | 0.4 | >2.0 | 1.5 | some of the highest readings | N-acetyl-β-D-Glucosaminide [formula 25] |  |  | 
5 | 0.4 | 0.3 | 0.2 | 0.4 | 0.9 | 0.1 | 0.0 | 0.1 | 0.5 | 0.2 | >2.0 | 1.7 | some of the highest readings | CC(=O)N[C@@H]1[C@@H](O)[C@H](O[C@@H]2O[C@H](CO)[C@@H](O)[C@H](O)[C@H]2NC(C)=O)[C@@H](CO)O[C@H]1O [formula 26, βGlcNAc(1-4)βGlcNAc] |  |  | 
6 | 1.4 | 0.8 | 0.1 | 0.3 | 1.9 | 0.8 | 0.1 | 0.1 | 1.0 | 0.3 | 1.6 | 1.1 | some of the highest readings | CC(=O)N[C@H]1[C@H](O[C@@H]2[C@H](O)[C@@H](O)[C@H](C)O[C@H]2O)O[C@H](CO)[C@@H](O)[C@@H]1O[C@@H]1O[C@@H](C)[C@H](O)[C@@H](O)[C@H]1O [formula 32, α-L-Rha(1-3)βGlcNAc(1-2)α-L-Rha] |  |  | 
